US10807985B2 (Blueprint Medicines Corporation, priority 2013, dated 2020)
Entries after “also recorded” stand apart in the source; their conditions may differ.

Key:
[1] = target: D816V KIT (Homo sapiens (Human), UniProt P10721, D816V); test: KIT D816V assay at Km (Caliper electrophoretic mobility shift); conditions: biochemical, 15 uM ATP (Km), 90 minutes at 25 C; read-out: INH KIT D816V
[2] = target: PDGFRA D842V (Homo sapiens (Human), UniProt P16234, D842V); test: PDGFRA D842V assay at Km (Caliper electrophoretic mobility shift); conditions: biochemical, 15 uM ATP (Km), 90 minutes at 25 C; read-out: INH PDFGRA D842V
[3] = system: P815 tumor cells; test: P815 mastocytoma xenograft model, tumor growth; format: in vivo, mouse; conditions: P815 xenograft in female BALB/c nude mice; 3, 10, 30, 100 mg/kg p.o. QD × 10
Description: Compound 46 and Dasatinib were evaluated in a P815 mastocytoma xenograft model. P815 tumor cells (ATCC, Manassas, Va., cat # ATCC® TIB-64) were maintained in vitro as a suspension and monolayer culture in RPMI1640 medium supplemented with 10% fetal calf serum at 37° C. in an atmosphere of 5% CO2 in air. The tumor cells were sub-cultured twice weekly by trypsin-EDTA treatment. The cells growing in an exponential growth phase were harvested and counted for tumor inoculation.
Tumor sizes were measured every other day in two dimensions using a caliper, and the volume was expressed in mm^3 using the formula: V=0.5 a×b^2 where a and b were the long and short diameters of the tumor, respectively. […] T-C was calculated with T as the median time (in days) required for the treatment group tumors to reach a predetermined size (e.g., 1000 mm^3), and C as the median time (in days) for the control group tumors to reach the same size. […]
TGI was calculated for each group using the formula: TGI (%)=[1−(Ti−T0)/(Vi−V0)]×100; Ti is the average tumor volume of a treatment group on a given day, T0 is the average tumor volume of the treatment group on the day of treatment start, Vi is the average tumor volume of the vehicle control group on the same day with Ti, and V0 is the average tumor volume of the vehicle group on the day of treatment start. Tumor weight was measured at the endpoint. […]

[4] = mouse, in vivo
[5] = target: KIT D816V kinase activity (KIT autophosphorylation at tyrosine 719) in HMC1.2 cells (Homo sapiens (Human), UniProt P10721, D816V/V560G); test: HMC1.2 autophosphorylation assay (phospho-Y719 c-KIT AlphaLISA); format: cell-based; conditions: HMC1.2 mast cell leukemia cell line (KIT V560G, D816V), 90 minutes compound; read-out: INH-KIT-PHOS-HMC1.2
[6] = Body weight changes in the tumor bearing mice (P815 xenograft)

Chain of PDGFRA D842V (P16234 24-1089 D842V): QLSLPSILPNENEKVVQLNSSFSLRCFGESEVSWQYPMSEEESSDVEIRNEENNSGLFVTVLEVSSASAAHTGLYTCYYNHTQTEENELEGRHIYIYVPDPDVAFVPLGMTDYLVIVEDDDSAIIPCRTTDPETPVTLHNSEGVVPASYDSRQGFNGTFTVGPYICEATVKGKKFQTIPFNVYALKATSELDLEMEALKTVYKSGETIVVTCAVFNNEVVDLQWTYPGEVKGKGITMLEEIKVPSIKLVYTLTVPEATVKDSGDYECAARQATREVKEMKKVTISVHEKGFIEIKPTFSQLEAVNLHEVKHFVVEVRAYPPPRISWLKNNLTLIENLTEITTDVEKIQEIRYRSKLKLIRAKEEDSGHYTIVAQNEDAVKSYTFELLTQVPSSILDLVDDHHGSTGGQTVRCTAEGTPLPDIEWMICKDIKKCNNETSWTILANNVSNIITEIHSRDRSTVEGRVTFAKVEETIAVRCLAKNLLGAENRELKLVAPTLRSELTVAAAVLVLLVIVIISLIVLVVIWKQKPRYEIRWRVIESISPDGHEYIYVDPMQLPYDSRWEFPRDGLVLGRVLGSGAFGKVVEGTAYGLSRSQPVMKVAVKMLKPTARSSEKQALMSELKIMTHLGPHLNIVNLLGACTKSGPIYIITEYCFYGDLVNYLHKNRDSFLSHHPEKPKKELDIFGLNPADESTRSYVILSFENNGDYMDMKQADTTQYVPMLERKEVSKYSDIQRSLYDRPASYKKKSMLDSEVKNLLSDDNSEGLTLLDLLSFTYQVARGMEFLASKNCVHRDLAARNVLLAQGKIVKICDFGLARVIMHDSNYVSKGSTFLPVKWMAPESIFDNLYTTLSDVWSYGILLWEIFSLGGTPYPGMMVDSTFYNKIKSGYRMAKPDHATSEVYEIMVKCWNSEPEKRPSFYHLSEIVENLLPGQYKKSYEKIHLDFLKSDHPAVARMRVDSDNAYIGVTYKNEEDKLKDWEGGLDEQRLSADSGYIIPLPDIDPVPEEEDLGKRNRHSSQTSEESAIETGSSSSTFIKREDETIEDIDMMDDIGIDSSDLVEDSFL
Chain of KIT D816V kinase activity (KIT autophosphorylation at tyrosine 719) in HMC1.2 cells (P10721 26-976 V560G/D816V): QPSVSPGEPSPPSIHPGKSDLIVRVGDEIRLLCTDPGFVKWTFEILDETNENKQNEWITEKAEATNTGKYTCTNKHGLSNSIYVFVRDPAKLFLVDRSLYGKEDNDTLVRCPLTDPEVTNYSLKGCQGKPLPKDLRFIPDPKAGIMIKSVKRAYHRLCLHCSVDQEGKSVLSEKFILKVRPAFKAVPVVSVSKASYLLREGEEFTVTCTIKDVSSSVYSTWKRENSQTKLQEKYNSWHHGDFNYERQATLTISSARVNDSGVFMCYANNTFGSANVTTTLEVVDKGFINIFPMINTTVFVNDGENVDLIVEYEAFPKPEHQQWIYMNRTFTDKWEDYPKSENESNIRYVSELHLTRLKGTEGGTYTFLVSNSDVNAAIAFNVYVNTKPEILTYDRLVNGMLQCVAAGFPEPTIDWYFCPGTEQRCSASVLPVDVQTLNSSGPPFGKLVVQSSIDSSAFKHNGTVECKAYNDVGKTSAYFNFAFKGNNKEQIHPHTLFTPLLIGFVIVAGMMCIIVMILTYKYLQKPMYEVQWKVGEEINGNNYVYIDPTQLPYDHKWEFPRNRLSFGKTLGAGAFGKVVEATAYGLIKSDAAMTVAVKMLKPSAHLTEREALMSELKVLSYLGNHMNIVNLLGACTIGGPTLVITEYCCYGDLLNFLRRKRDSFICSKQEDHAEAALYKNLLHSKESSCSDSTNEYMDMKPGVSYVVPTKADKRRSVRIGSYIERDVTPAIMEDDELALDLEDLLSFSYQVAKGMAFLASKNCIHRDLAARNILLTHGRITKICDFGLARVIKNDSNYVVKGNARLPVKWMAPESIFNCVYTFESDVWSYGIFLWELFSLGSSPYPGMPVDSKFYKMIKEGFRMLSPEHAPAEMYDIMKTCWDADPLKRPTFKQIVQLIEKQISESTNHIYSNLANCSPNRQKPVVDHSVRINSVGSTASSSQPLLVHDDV
Chain of D816V KIT (P10721 26-976 D816V): as the sequence (P10721 26-976 V560G/D816V) above, with G535V counted along it

SMILES: Cn1cc(-c2cc3c(N4CCN(c5ncc([C@@](C)(O)c6ccc(F)cc6)cn5)CC4)ncnn3c2)cn1 [Compound 46]
- IC50 [1]: < 1 nM
- IC50 [2]: < 1 nM
- tumor growth inhibition [3]: effective in inhibiting tumor growth; also recorded: observable antitumor activity
- tolerability [4]: well tolerated
- IC50 [5]: < 50 nM
- body weight change ([6]; Compound 46 3-100 mg/kg p.o. QD × 10, even at the higher doses): less than 5%

SMILES: Cn1cc(-c2cc3c(N4CCN(c5ncc([C@](O)(CF)c6ccc(F)cc6)cn5)CC4)ncnn3c2)cn1 [Compound 96]
- IC50 [1]: < 1 nM
- IC50 [2]: < 1 nM
- IC50 [5]: < 50 nM

SMILES: Cn1cc(-c2cc3c(N4CCN(c5ncc(Sc6ccccc6F)cn5)[C@H](CO)C4)ncnn3c2)cn1 [Compound 97]
- IC50 [1]: 1.01 to 10 nM
- IC50 [2]: 1.01 to 10 nM
- IC50 [5]: < 50 nM

SMILES: CN(C)C(=O)c1ccc(-c2cc3c(N4CCN(c5ncc(Cc6ccccc6)cn5)CC4)ncnn3c2)cc1 [Compound 98]
- IC50 [1]: < 1 nM
- IC50 [2]: < 1 nM
- IC50 [5]: 100 to 1000 nM

SMILES: O[C@@](c1ccc(F)cc1)(c1cnc(N2CCN(c3ncnn4cc(-c5cn[nH]c5)cc34)CC2)nc1)C(F)F [Compound 100]
- IC50 [1]: < 1 nM
- IC50 [2]: < 1 nM
- IC50 [5]: < 50 nM

SMILES: COc1ccc(-c2cc3c(N4CCN(c5ncc([C@@](C)(O)c6ccc(F)cc6)cn5)CC4)ncnn3c2)cc1 [Compound 102]
- IC50 [1]: 1.01 to 10 nM
- IC50 [2]: 1.01 to 10 nM
- IC50 [5]: 50 to 100 nM

SMILES: Cn1cc(-c2cc3c(N4CCN(c5ncc([C@@](N)(c6ccc(F)cc6)C(F)F)cn5)CC4)ncnn3c2)cn1 [Compound 111]
- IC50 [1]: < 1 nM
- IC50 [2]: < 1 nM
- IC50 [5]: < 50 nM

SMILES: Cn1cc(-c2cc3c(N4CCN(c5ncc([C@](C)(O)c6c(F)cc(F)cc6F)cn5)CC4)ncnn3c2)cn1 [Compound 115]
- IC50 [1]: 1.01 to 10 nM
- IC50 [2]: < 1 nM
- IC50 [5]: < 50 nM

SMILES: Cn1cc(-c2cc3c(N4CCN(c5ncc([C@@](C)(O)c6c(F)cc(F)cc6F)cn5)CC4)ncnn3c2)cn1 [Compound 116]
- IC50 [1]: < 1 nM
- IC50 [2]: < 1 nM
- IC50 [5]: < 50 nM

SMILES: Cn1cc(-c2cc3c(N4CCN(c5ncc([C@@](O)(c6ccc(F)cc6)C(F)F)cn5)CC4)ncnn3c2)cn1 [Compound 117]
- IC50 [1]: < 1 nM
- IC50 [2]: 1.01 to 10 nM
- IC50 [5]: < 50 nM

SMILES: Cn1cc(-c2cc3c(N4CCN(c5ncc([C@@](N)(c6ccc(F)cc6)C(F)(F)F)cn5)CC4)ncnn3c2)cn1 [Compound 122]
- IC50 [1]: 1.01 to 10 nM
- IC50 [2]: 1.01 to 10 nM
- IC50 [5]: < 50 nM

SMILES: Fc1ccccc1Sc1cnc(N2CCN(c3ncnn4cc(-c5cnn(C[C@@H]6CNCCO6)c5)cc34)CC2)nc1 [Compound 123, (S)-2-((4-(4-(4-(5-(2-fluorophenylthio)pyrimidin-2-yl)piperazin-1-yl)pyrrolo[1,2-f][1,2,4]triazin-6-yl)-1H-pyrazol-1-yl)methyl)morpholine]
- IC50 [1]: 1.01 to 10 nM
- IC50 [2]: 1.01 to 10 nM
- IC50 [5]: 50 to 100 nM

SMILES: Cc1nc(Nc2ncc(C(=O)Nc3c(C)cccc3Cl)s2)cc(N2CCN(CCO)CC2)n1 [Dasatinib, reference compound]
- body weight loss ([6]; Dasatinib 25 mg/kg p.o. BID × 10): more than 5%
